Data from ChEMBL document CHEMBL3120096 (J Med Chem, 2014).

Key:
Homo sapiens = species: Homo sapiens; test: Selectivity ratio of Ki for JAK2 (unknown origin) to Ki for LRRK2 (unknown origin)
[1] = target: T1, Leucine-rich repeat serine/threonine-protein kinase 2 (Homo sapiens, UniProt Q5S007); test: Inhibition of LRRK2 (unknown origin) phosphorylation by cell-based assay
[2] = Ratio of unbound drug level in brain to plasma in Sprague-Dawley rat; format: ADME, organism-based
Rattus norvegicus = test: Unbound clearance in Sprague-Dawley rat at 1 mg/kg, po and 0.5 mg/kg, iv; format: ADME, organism-based; conditions: in vivo
[3] = target: T1, Leucine-rich repeat serine/threonine-protein kinase 2; test: Inhibition of LRRK2 (unknown origin)
[4] = Reversible inhibition of CYP in human liver microsomes by mass spectrophotometric analysis; format: ADME
[5] = Clearance in Sprague-Dawley rat at 1 mg/kg, po and 0.5 mg/kg, iv; format: ADME, organism-based; conditions: in vivo
MDR1 (P-gp, ABCB1) = MDR1 (P-gp, ABCB1) (Homo sapiens, UniProt P08183); test: Activity at human MDR1 transfected in MDCK cells assessed as efflux ratio of apparent permeability from basolateral to apical side over apical to basolateral side at 5 uM; format: ADME, cell-based
MDR1 (P-gp, ABCB1), sequence (P08183 whole entry): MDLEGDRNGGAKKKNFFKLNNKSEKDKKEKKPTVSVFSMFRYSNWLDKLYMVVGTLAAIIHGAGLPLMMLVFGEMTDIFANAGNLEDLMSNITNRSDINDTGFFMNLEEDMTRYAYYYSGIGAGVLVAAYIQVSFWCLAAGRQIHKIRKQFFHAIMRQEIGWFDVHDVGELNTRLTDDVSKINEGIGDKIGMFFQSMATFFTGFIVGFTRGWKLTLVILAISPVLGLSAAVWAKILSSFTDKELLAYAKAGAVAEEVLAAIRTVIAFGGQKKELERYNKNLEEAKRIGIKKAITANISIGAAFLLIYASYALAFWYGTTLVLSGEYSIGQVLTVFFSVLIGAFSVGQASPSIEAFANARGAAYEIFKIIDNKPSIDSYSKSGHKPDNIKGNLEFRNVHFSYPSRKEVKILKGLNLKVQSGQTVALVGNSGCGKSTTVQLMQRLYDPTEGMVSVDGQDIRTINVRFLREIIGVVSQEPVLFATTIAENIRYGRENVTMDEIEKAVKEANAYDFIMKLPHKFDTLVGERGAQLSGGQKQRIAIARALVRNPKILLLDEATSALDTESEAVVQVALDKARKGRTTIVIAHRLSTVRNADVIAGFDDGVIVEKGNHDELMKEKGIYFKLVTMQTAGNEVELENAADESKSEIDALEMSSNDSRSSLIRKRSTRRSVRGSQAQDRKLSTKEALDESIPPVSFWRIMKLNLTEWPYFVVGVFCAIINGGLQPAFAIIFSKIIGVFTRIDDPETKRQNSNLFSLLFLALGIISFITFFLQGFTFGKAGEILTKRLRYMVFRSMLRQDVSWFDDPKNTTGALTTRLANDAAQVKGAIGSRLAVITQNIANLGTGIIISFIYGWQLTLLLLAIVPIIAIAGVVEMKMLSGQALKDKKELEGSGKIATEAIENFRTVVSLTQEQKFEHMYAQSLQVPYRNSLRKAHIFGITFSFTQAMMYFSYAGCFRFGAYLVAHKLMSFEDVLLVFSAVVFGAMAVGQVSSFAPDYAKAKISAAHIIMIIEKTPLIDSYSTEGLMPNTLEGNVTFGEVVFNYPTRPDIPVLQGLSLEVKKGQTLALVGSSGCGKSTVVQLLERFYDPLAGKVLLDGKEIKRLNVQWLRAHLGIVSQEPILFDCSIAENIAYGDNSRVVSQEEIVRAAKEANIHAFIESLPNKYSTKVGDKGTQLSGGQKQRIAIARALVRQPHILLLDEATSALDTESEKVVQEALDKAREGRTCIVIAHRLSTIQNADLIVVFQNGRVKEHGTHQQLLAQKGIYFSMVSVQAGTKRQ

[6] = Clearance in human hepatocytes at 1 uM by LC-MS/MS analysis; format: ADME, cell-based, Hepatocyte
[7] = Clearance in rat hepatocytes at 1 uM by LC-MS/MS analysis; format: ADME, cell-based, Hepatocyte
Cytochrome P450 1A2 [8] = target: T2, Cytochrome P450 1A2 (Homo sapiens, UniProt P05177); test: Time dependent inhibition of CYP1A2 in human liver microsomes using phenacetin as substrate by HPLC-MS analysis; format: ADME
T2 sequence (P05177 whole entry): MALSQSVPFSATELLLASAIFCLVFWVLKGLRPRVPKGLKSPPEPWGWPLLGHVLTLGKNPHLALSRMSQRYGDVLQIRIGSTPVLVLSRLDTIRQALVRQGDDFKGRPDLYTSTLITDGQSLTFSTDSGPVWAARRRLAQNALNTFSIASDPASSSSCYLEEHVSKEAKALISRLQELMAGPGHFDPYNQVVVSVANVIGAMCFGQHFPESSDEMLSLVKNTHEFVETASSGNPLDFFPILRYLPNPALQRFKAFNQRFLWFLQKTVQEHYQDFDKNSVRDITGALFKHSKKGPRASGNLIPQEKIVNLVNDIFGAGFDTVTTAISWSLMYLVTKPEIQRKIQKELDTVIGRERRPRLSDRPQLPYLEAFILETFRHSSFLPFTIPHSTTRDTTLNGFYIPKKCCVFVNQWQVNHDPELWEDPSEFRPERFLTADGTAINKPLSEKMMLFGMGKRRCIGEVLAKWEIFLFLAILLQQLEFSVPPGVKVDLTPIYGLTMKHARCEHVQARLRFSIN

[9] = Thermodynamic solubility of the crystalline form of compound at pH 7.4; format: physicochemical; conditions: read-out: Therm_solubility
[10] = Half life in cynomolgus monkey at 0.5 mg/kg, iv; format: ADME, organism-based, Macaca fascicularis; parameters: dose 0.5 mg/kg, route intravenous; conditions: in vivo
Cytochrome P450 1A2 [11] = target: T2, Cytochrome P450 1A2; test: Induction of CYP1A2 in human hepatocytes; format: ADME, cell-based, Hepatocyte
Mus musculus = test: In vivo inhibition of human LRRK2 G2019S Parkinson's disease mutant expressed in BAC mouse assessed as inhibition of autophosphorylation at Ser1292 in brain at 10 to 50 mg/kg, ip after 1 to 6 hrs; format: functional, organism-based; parameters: dose 10-50 mg/kg, route intraperitoneal
Cytochrome P450 2B6 = target: T3, Cytochrome P450 2B6 (Homo sapiens, UniProt P20813); test: Induction of CYP2B6 in human hepatocytes; format: ADME, cell-based, Hepatocyte
T3 sequence (P20813 whole entry): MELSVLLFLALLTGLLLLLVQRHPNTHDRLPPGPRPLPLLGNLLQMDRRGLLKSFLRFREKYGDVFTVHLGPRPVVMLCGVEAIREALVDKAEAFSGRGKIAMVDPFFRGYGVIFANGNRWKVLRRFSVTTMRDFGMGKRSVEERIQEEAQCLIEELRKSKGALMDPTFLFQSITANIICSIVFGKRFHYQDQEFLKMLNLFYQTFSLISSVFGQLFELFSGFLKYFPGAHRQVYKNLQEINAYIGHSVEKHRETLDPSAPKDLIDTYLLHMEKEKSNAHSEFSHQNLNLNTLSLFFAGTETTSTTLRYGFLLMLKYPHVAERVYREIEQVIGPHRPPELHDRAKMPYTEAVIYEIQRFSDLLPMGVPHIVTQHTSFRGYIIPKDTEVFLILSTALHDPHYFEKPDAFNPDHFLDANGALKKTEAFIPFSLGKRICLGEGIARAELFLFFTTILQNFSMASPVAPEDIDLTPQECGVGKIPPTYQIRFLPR

Cytochrome P450 3A4 = Cytochrome P450 3A4 (Homo sapiens, UniProt P08684); test: Induction of CYP3A4 in human hepatocytes; format: ADME, cell-based, Hepatocyte
Cytochrome P450 3A4, sequence (P08684 whole entry): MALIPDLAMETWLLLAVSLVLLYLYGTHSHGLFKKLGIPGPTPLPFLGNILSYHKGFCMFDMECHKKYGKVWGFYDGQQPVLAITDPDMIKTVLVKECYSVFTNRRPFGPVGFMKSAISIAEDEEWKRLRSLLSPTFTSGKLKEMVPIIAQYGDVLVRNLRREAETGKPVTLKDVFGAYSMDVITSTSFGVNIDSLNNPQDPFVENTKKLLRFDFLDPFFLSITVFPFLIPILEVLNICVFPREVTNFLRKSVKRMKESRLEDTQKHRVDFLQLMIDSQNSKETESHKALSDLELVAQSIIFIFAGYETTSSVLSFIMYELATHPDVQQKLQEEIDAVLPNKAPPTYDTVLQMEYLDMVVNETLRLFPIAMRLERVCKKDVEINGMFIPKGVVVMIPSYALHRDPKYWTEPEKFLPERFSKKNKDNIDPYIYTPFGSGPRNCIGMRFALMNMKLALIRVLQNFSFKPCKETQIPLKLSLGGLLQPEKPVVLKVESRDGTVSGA

Liver microsome [12] = test: Drug metabolism in human liver microsomes in presence of glutathione; format: ADME
TAK1/TAB1 (Homo sapiens) = TAK1/TAB1 (Homo sapiens) (UniProt Q15750+O43318); test: Inhibition of TAK1/TAB1 (unknown origin) at 0.1 uM relative to control; format: protein-complex assay
[13] = Oral bioavailability in Sprague-Dawley rat at 1 mg/kg; format: ADME, organism-based; conditions: in vivo
[14] = Plasma protein binding in cynomolgus monkey at 5 uM after 4 hrs by equilibrium dialysis technique; format: ADME, cell-free, Macaca fascicularis; conditions: read-out: PPB (converted)
[15] = Oral bioavailability in cynomolgus monkey at 1 mg/kg; format: ADME, organism-based, Macaca fascicularis; conditions: in vivo
Liver microsome [16] = test: Drug metabolism in human liver microsomes in presence of methoxyamine; format: ADME
[17] = Clearance in cynomolgus monkey at 1 mg/kg, po and 0.5 mg/kg, iv; format: ADME, organism-based, Macaca fascicularis; conditions: in vivo
Cynomolgus monkey = test: Unbound clearance in cynomolgus monkey at 1 mg/kg, po and 0.5 mg/kg, iv; format: ADME, organism-based, Macaca fascicularis; conditions: in vivo
[18] = Time dependent inhibition of CYP in human liver microsomes by HPLC-MS analysis; format: ADME
[19] = Half life in Sprague-Dawley rat at 0.5 mg/kg, iv; format: ADME, organism-based; parameters: dose 0.5 mg/kg, route intravenous; conditions: in vivo
[20] = Volume of distribution in Sprague-Dawley rat at 0.5 mg/kg, iv; format: ADME, organism-based; parameters: dose 0.5 mg/kg, route intravenous; conditions: in vivo
[21] = Half life in Sprague-Dawley rat at 1 mg/kg, po and 0.5 mg/kg, iv; format: ADME, organism-based; conditions: in vivo
[22] = Volume of distribution in Sprague-Dawley rat at 1 mg/kg, po and 0.5 mg/kg, iv; format: ADME, organism-based; conditions: in vivo
BCRP (ABCG2) = target: T4, BCRP (ABCG2) (Homo sapiens, UniProt Q9UNQ0); test: Activity at BCRP transporter (unknown origin) transfected in MDCK cells assessed as efflux ratio of permeability; format: ADME, cell-based
T4 sequence (Q9UNQ0 whole entry): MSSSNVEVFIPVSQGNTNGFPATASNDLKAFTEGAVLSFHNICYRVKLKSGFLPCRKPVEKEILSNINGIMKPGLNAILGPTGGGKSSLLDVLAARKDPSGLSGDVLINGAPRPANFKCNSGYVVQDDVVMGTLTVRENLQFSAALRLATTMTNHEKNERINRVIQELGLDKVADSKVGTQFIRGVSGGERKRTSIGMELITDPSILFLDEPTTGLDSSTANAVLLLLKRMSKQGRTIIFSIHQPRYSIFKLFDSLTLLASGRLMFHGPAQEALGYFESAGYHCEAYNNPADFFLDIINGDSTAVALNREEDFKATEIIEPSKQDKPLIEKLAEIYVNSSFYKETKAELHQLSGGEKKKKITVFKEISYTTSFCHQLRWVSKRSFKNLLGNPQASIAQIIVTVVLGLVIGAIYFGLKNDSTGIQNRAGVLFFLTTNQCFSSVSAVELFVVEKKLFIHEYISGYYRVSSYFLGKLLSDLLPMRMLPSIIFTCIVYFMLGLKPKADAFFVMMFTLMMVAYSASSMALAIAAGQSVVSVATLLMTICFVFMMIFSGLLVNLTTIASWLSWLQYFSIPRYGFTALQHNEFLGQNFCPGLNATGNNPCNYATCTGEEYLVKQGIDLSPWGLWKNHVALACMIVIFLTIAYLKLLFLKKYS

T1 sequence (Q5S007 whole entry): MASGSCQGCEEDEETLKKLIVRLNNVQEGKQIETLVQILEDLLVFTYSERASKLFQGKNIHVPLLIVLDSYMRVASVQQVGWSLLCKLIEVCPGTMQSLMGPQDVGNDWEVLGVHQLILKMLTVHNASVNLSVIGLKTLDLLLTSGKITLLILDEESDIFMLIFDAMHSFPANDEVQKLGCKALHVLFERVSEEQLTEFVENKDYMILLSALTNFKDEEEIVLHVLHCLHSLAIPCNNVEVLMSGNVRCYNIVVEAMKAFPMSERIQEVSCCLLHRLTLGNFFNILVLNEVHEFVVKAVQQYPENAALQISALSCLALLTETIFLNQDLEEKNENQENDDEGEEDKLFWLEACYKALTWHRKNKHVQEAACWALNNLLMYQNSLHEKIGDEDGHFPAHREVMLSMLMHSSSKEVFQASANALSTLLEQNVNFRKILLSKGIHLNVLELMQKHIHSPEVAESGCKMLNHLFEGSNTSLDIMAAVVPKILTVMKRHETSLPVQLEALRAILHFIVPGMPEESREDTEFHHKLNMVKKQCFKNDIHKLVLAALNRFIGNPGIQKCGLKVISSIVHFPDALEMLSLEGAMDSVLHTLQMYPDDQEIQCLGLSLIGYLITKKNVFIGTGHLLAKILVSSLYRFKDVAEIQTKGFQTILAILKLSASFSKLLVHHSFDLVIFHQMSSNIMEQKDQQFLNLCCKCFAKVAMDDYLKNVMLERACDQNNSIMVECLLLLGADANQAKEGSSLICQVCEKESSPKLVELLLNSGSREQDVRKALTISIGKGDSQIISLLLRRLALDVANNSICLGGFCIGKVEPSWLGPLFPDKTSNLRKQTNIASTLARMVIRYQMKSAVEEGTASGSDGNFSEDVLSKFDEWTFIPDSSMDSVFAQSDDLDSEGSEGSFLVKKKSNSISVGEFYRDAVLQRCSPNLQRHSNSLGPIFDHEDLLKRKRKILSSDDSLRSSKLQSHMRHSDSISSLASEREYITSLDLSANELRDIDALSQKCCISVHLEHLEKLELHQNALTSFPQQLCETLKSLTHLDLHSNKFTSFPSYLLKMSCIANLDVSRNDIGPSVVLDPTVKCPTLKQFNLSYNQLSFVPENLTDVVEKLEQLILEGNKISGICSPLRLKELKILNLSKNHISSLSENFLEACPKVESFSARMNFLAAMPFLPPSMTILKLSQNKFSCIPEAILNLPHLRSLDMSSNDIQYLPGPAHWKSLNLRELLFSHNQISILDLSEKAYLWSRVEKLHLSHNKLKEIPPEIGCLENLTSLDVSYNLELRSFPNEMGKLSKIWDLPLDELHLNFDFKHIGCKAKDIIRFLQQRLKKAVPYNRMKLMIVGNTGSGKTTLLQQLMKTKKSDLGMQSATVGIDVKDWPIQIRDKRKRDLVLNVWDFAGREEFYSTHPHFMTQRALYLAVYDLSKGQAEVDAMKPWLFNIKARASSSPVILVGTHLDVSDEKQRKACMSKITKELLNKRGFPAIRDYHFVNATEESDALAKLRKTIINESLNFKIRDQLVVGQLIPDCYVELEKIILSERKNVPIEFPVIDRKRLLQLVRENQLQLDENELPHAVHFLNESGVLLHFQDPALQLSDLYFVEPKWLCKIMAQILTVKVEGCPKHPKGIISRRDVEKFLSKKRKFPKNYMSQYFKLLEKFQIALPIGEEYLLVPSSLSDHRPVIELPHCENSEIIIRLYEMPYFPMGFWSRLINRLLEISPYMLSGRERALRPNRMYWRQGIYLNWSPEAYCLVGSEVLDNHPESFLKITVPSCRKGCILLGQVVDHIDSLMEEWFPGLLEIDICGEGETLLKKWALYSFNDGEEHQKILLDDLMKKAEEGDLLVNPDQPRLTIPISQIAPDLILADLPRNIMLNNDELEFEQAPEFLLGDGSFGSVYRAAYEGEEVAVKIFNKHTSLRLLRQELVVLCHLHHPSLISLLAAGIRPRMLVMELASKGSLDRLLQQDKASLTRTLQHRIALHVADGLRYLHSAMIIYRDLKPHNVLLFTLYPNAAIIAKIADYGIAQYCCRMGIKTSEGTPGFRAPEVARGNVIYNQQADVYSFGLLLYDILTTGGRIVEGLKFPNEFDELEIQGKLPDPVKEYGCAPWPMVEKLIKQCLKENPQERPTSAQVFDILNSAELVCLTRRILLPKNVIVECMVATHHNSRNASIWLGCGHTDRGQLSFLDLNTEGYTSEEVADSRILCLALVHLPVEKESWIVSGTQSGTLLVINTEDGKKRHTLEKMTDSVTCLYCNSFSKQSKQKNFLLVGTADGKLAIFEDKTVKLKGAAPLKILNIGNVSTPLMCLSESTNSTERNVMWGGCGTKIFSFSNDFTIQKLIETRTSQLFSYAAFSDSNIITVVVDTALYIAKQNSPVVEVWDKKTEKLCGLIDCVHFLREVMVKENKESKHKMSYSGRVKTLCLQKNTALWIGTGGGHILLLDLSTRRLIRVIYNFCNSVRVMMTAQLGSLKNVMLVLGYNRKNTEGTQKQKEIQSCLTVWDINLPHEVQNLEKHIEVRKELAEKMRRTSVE

Structure (SMILES) | Ratio Ki (Homo sapiens) | IC50 [1] [nM] | Kp uu [2] | CL free (Rattus norvegicus) [mL/min/kg] | Ki [3] [nM] | clearance [5] [mL/min/kg] | efflux ratio at 5 µM (MDR1 (P-gp, ABCB1)) | CLhep predicted at 1 µM [6] [mL/min/kg] | CLhep predicted at 1 µM [7] [mL/min/kg] | other results
CNc1nc(Nc2cnn(C3COC3)c2C)ncc1C(F)(F)F | > 150 | 29 | 0.3 | 115 | 2 | 56 | 1.4 | 2 | 17 | inhibition (INH) [4]: Not Active; IC50 (Cytochrome P450 1A2 [8]): 2000 nM
CCNC(=O)C(C)(C)n1cc(Nc2ncc(C(F)(F)F)c(NC)n2)c(C)n1 | > 150 | 99 |  |  |  |  | 4 |  |  | 
CCNc1nc(Nc2cc(F)c(C(=O)N3CCOCC3)cc2OC)ncc1C(F)(F)F | > 150 |  |  |  |  |  |  |  |  | solubility thermodynamic [9]: < 2 µg/mL
CNc1nc(Nc2cn(C(C)(C)C(=O)NC(C)C)nc2C)ncc1C(F)(F)F | > 150 | 140 |  |  |  |  | 1.3 |  |  | 
CNc1nc(Nc2cnn3c2COC(C)(C)C3)ncc1C(F)(F)F | > 150 | 20 |  |  | 0.9 |  | 0.7 | 12 |  | 
CNc1nc(Nc2cnn3c2COCC3)ncc1C(F)(F)F | > 150 | 18 |  |  | 3 |  | 1 |  |  | 
CNc1nc(Nc2cn(C3(C#N)CC3)nc2C)ncc1C(F)(F)F | > 150 | 30 | 0.4 | 213 | 3 | 55 | 1.4 | 5 | 14 | 
CNc1nc(Nc2cnn([C@H]3CCN(C4COC4)C[C@@H]3F)c2Cl)ncc1C(F)(F)F (relative stereo) |  | 18.7 | 0.51 | 261 | 2 | 26 |  | 1 | 21 | half-life [10]: 4 h; Activity (Cytochrome P450 1A2 [11]): Not Active; IC50 (Mus musculus): 20 nM; inhibition (Mus musculus): Dose-dependent effect; Activity (Cytochrome P450 2B6): Not Active; Activity (Cytochrome P450 3A4): Not Active; Drug metabolism (Liver microsome [12]): Not Active; inhibition (TAK1/TAB1 (Homo sapiens)): 54%; inhibition (INH) [4]: Not Active; bioavailability [13]: 90%; fraction unbound at 4 h, 5 µM [14]: 0.179; bioavailability [15]: 74%; Drug metabolism (Liver microsome [16]): Not Active; clearance [17]: 7.8 mL/min/kg; CL free (Cynomolgus monkey): 43 mL/min/kg; inhibition (INH) [18]: Not Active
CNc1nc(Nc2cnn(C3CCOCC3)c2C)ncc1C(F)(F)F | > 150 | 11 | 0.3 | 232 | 2 | 74 | 2.3 | 5 | 35 | half-life [19]: 0.17 h; Vd [20]: 1.1 L/kg
CNc1nc(Nc2cnn(C3CCN(C4COC4)CC3)c2C)ncc1C(F)(F)F | > 150 | 20 | 0.06 | 45 | 4 | 22 | 5.1 | 3 | 9 | half-life [21]: 2.1 h; inhibition (INH) [4]: Not Active; inhibition (INH) [18]: Not Active; Vd [22]: 1.7 L/kg
CNc1nc(Nc2cnn(C(C)(C)C#N)c2C)ncc1C(F)(F)F | > 150 | 5 | 0.4 | 423 | 1 | 65 | 1 | 4 | 33 | 
CCNc1nc(Nc2cc(C(C)(C)C#N)nn2C)ncc1C(F)(F)F | > 150 |  | 0.5 | 201 |  | 27 | 1.5 | 5 | 18 | 
CNc1nc(Nc2cn(C(C)(C)C(=O)NCC(F)(F)F)nc2C)ncc1C(F)(F)F | > 150 | 53 |  |  |  |  | 1.5 |  |  | 
CNC(=O)C(C)(C)n1cc(Nc2ncc(C(F)(F)F)c(NC)n2)c(C)n1 | > 150 | 36 |  | 27 |  | 12 | 5.5 |  |  | 
CNc1nc(Nc2cnn3c2C(C)O[C@@H](C)C3)ncc1C(F)(F)F (some centres undefined) | > 150 | 49 |  |  | 6 |  | 1 | 8 |  | 
CNc1nc(Nc2cnn(C3(C#N)CC3)c2Cl)ncc1C(F)(F)F | > 150 | 22 | 0.6 | 431 | 2 | 22 | 1.3 | 9 | 30 | 
CNc1nc(Nc2cn([C@H]3CCN(C4COC4)C[C@H]3F)nc2C)ncc1C(F)(F)F (relative stereo) | > 150 | 14 | 0.08 | 42 | 2 | 16 | 2.2 | 1 |  | efflux ratio (BCRP (ABCG2)): 4.2
CNc1nc(Nc2cnn3c2C(C)OCC3)ncc1C(F)(F)F (centres undefined) | > 150 | 42 |  | 105 | 3 | 43 | 1.3 | 3 | 19 | 
